Measured values from PubChem BioAssay (NCI).
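Cells were grown in 96-well plates and exposed to each compound for 48 hours at five concentrations; endpoints were interpolated linearly between bracketing concentrations, or set to the highest concentration if not reached. TGI: concentration producing complete growth inhibition.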

Key:
Assay in all cases: NCI tumour cell line growth inhibition, 48 h
SF-295 CNS = tested on: SF-295 CNS
KM12 colon = tested on: KM12 colon
RPMI-8226 leukemia = tested on: RPMI-8226 leukemia
IGROV1 ovarian = tested on: IGROV1 ovarian
SK-MEL-2 melanoma = tested on: SK-MEL-2 melanoma
SR leukemia = tested on: SR leukemia
A498 renal = tested on: A498 renal
786-0 renal = tested on: 786-0 renal
BT-549 breast = tested on: BT-549 breast
LOX IMVI melanoma = tested on: LOX IMVI melanoma
OVCAR-8 ovarian = tested on: OVCAR-8 ovarian
MOLT-4 leukemia = tested on: MOLT-4 leukemia
TK-10 renal = tested on: TK-10 renal
CCRF-CEM leukemia = tested on: CCRF-CEM leukemia
OVCAR-3 ovarian = tested on: OVCAR-3 ovarian
DU-145 prostate = tested on: DU-145 prostate
HCT-116 colon = tested on: HCT-116 colon
T-47D breast = tested on: T-47D breast
UACC-257 melanoma = tested on: UACC-257 melanoma
MDA-N = tested on: MDA-N
PC-3 prostate = tested on: PC-3 prostate
MDA-MB-435 = tested on: MDA-MB-435
MALME-3M melanoma = tested on: MALME-3M melanoma
SNB-19 CNS = tested on: SNB-19 CNS
HT29 colon = tested on: HT29 colon
SW-620 colon = tested on: SW-620 colon
HOP-62 NSCLC = tested on: HOP-62 NSCLC
SF-539 CNS = tested on: SF-539 CNS
OVCAR-5 ovarian = tested on: OVCAR-5 ovarian
NCI-H460 lung = tested on: NCI-H460 lung
HCT-15 colon = tested on: HCT-15 colon
MDA-MB-231 breast = tested on: MDA-MB-231 breast
HS 578T breast = tested on: HS 578T breast
CAKI-1 renal = tested on: CAKI-1 renal
SN12C renal = tested on: SN12C renal
RXF 393 renal = tested on: RXF 393 renal
ACHN renal = tested on: ACHN renal
SNB-75 CNS = tested on: SNB-75 CNS
COLO 205 colon = tested on: COLO 205 colon
UO-31 renal = tested on: UO-31 renal
SK-MEL-5 melanoma = tested on: SK-MEL-5 melanoma
OVCAR-4 ovarian = tested on: OVCAR-4 ovarian
K-562 leukemia = tested on: K-562 leukemia
EKVX NSCLC = tested on: EKVX NSCLC
NCI-H522 lung = tested on: NCI-H522 lung
SK-MEL-28 melanoma = tested on: SK-MEL-28 melanoma
M14 melanoma = tested on: M14 melanoma
A549 NSCLC = tested on: A549 NSCLC
UACC-62 melanoma = tested on: UACC-62 melanoma
HCC-2998 colon = tested on: HCC-2998 colon
U251 CNS = tested on: U251 CNS
NCI-H23 lung = tested on: NCI-H23 lung
SK-OV-3 ovarian = tested on: SK-OV-3 ovarian
NCI/ADR-RES ovarian = tested on: NCI/ADR-RES ovarian
SF-268 CNS = tested on: SF-268 CNS
MCF7 breast = tested on: MCF7 breast
NCI-H226 lung = tested on: NCI-H226 lung
HOP-92 NSCLC = tested on: HOP-92 NSCLC

SMILES: Cc1cccc(NC(Nc2cccc(C)c2)=C(C(Cl)=C(Cl)Cl)[N+](=O)[O-])c1
- TGI (SF-295 CNS): > 66.8 µM
- TGI (KM12 colon): 49.5 µM
- TGI (RPMI-8226 leukemia): > 100 µM
- TGI (IGROV1 ovarian): 20.3 µM
- TGI (SK-MEL-2 melanoma): 48.5 µM
- TGI (SR leukemia): 42.8 µM
- TGI (A498 renal): > 86 µM
- TGI (786-0 renal): 44.3 µM
- TGI (BT-549 breast): 26.3 µM
- TGI (LOX IMVI melanoma): 28.7 µM
- TGI (OVCAR-8 ovarian): 27.6 µM
- TGI (MOLT-4 leukemia): > 20 µM
- TGI (TK-10 renal): 28.5 µM
- TGI (CCRF-CEM leukemia): > 100 µM
- TGI (OVCAR-3 ovarian): 44.6 µM
- TGI (DU-145 prostate): > 57.5 µM
- TGI (HCT-116 colon): > 46.4 µM
- TGI (T-47D breast): > 53 µM
- TGI (UACC-257 melanoma): > 53.4 µM
- TGI (MDA-N): > 35.1 µM
- TGI (PC-3 prostate): > 92.9 µM
- TGI (MDA-MB-435): 28.7 µM
- TGI (MALME-3M melanoma): 29 µM
- TGI (SNB-19 CNS): > 63 µM
- TGI (HT29 colon): > 54 µM
- TGI (SW-620 colon): 34.2 µM
- TGI (HOP-62 NSCLC): 41.7 µM
- TGI (SF-539 CNS): 23.4 µM
- TGI (OVCAR-5 ovarian): > 72.1 µM
- TGI (NCI-H460 lung): > 62.5 µM
- TGI (HCT-15 colon): 33.1 µM
- TGI (MDA-MB-231 breast): 17 µM
- TGI (HS 578T breast): 11.2 µM
- TGI (CAKI-1 renal): 35.6 µM
- TGI (SN12C renal): 24 µM
- TGI (RXF 393 renal): 22.8 µM
- TGI (ACHN renal): 43.1 µM
- TGI (SNB-75 CNS): > 68.6 µM
- TGI (COLO 205 colon): 28.3 µM
- TGI (UO-31 renal): 26.4 µM
- TGI (SK-MEL-5 melanoma): 19.6 µM
- TGI (OVCAR-4 ovarian): > 82 µM
- TGI (K-562 leukemia): > 100 µM
- TGI (EKVX NSCLC): > 59 µM
- TGI (NCI-H522 lung): 21 µM
- TGI (SK-MEL-28 melanoma): 41.2 µM
- TGI (M14 melanoma): > 52 µM
- TGI (A549 NSCLC): > 68 µM
- TGI (UACC-62 melanoma): 40.6 µM
- TGI (HCC-2998 colon): > 57.8 µM
- TGI (U251 CNS): 36.3 µM
- TGI (NCI-H23 lung): 23.6 µM
- TGI (SK-OV-3 ovarian): > 100 µM
- TGI (NCI/ADR-RES ovarian): 35.4 µM
- TGI (SF-268 CNS): 30.6 µM
- TGI (MCF7 breast): > 100 µM
- TGI (NCI-H226 lung): 22.5 µM

SMILES: c1ccc(-c2ccc(N=NN3CCCC3)cc2)cc1
- TGI (SF-295 CNS): > 100 µM
- TGI (KM12 colon): > 100 µM
- TGI (RPMI-8226 leukemia): > 100 µM
- TGI (IGROV1 ovarian): > 100 µM
- TGI (SK-MEL-2 melanoma): > 100 µM
- TGI (SR leukemia): > 100 µM
- TGI (A498 renal): > 100 µM
- TGI (786-0 renal): > 100 µM
- TGI (BT-549 breast): > 100 µM
- TGI (LOX IMVI melanoma): > 100 µM
- TGI (OVCAR-8 ovarian): > 100 µM
- TGI (MOLT-4 leukemia): > 100 µM
- TGI (TK-10 renal): > 100 µM
- TGI (CCRF-CEM leukemia): > 100 µM
- TGI (OVCAR-3 ovarian): > 100 µM
- TGI (DU-145 prostate): > 100 µM
- TGI (HCT-116 colon): > 100 µM
- TGI (HOP-92 NSCLC): > 100 µM
- TGI (T-47D breast): > 100 µM
- TGI (UACC-257 melanoma): > 100 µM
- TGI (MDA-N): > 100 µM
- TGI (PC-3 prostate): > 100 µM
- TGI (MDA-MB-435): > 100 µM
- TGI (SNB-19 CNS): > 100 µM
- TGI (SW-620 colon): > 100 µM
- TGI (HOP-62 NSCLC): > 100 µM
- TGI (SF-539 CNS): > 100 µM
- TGI (OVCAR-5 ovarian): > 100 µM
- TGI (NCI-H460 lung): > 100 µM
- TGI (HCT-15 colon): > 100 µM
- TGI (MDA-MB-231 breast): > 100 µM
- TGI (HS 578T breast): > 100 µM
- TGI (CAKI-1 renal): > 100 µM
- TGI (SN12C renal): > 100 µM
- TGI (RXF 393 renal): > 100 µM
- TGI (ACHN renal): > 100 µM
- TGI (SNB-75 CNS): > 100 µM
- TGI (COLO 205 colon): > 100 µM
- TGI (UO-31 renal): > 100 µM
- TGI (SK-MEL-5 melanoma): > 100 µM
- TGI (OVCAR-4 ovarian): > 100 µM
- TGI (K-562 leukemia): > 100 µM
- TGI (EKVX NSCLC): > 100 µM
- TGI (NCI-H522 lung): > 100 µM
- TGI (M14 melanoma): > 100 µM
- TGI (UACC-62 melanoma): > 100 µM
- TGI (U251 CNS): > 100 µM
- TGI (NCI-H23 lung): > 100 µM
- TGI (SK-OV-3 ovarian): > 100 µM
- TGI (NCI/ADR-RES ovarian): > 100 µM
- TGI (SF-268 CNS): > 100 µM
- TGI (MCF7 breast): > 100 µM
- TGI (NCI-H226 lung): > 100 µM
